Laboratory results as given in patent US8592421B2, “Cyclic bioisosters of purine system derivatives and a pharmaceutical composition based thereon” (priority 2003, dated 2013).
Marks after values point to notes of the source that are not given here.

Legend:
[1] = tested on: adenosine-sensitive receptors of erythrocytes; assay: Interaction with adenosine-sensitive receptors of erythrocytes (chemiluminescence of bound compound, adenosine competition); format: binding, mice of line BALB/c; details: incubation at 37° C. vs 4° C., 10^−7 to 10^−5 M
Protocol: The interaction of compounds 2, 15, 21, 37 according to the invention with adenosine-sensitive receptors of erythrocytes of female mice of line BALB/c of an age of 8-12 months was investigated.
The dependence of the chemiluminescence intensity of the compounds according to the invention in an alkaline solution of 0.1N NaOH was determined in the presence of hydrogen peroxide being an initiator of chemiluminescence. The chemiluminescence was studied using the <<LKB>> chemiluminometer.
The erythrocytes of peripheral blood of the mice at first were washed three times by a normal physiological solution with centrifuging and then diluted in the Henks solution without glucose by 10 volumes of distilled water immediately used in the experiment.
At the first stage of the experiments the washed erythrocytes were incubated at a temperature of 37° C. or at 4° C. with solutions of the compounds according to the invention at a concentration of 10^−7 to 10^−5 M for 5-30 minutes, then washed by a normal physiological solution with repeated centrifuging in the cold. The obtained suspension of erythrocytes with the bound compounds according to the invention was placed in 0.1N solution of NaOH with addition of hydrogen peroxide at a final concentration of 10^−7 M. The chemiluminescence intensity was measured. A suspension of erythrocytes without compounds according to the invention was used as a control medium.
At the second stage of the experiments the washed erythrocytes were incubated at a temperature of 37° C. with solutions of the compounds according to the invention at a concentration of 10^−11 to 10^−8 M during 5-30 minutes, then washed twice with a normal physiological solution by centrifuging in the cold, the obtained suspension was mixed with an adenosine solution at a concentration of 10^−6 to 10^−4 and incubated for 15 minutes, then washed twice with a normal physiological solution with centrifuging in the cold. The obtained suspension of erythrocytes with the compounds according to the invention was placed in 0.1N solution of NaOH with addition of hydrogen peroxide in the final concentration of 10^−7 M. The chemiluminescence intensity was measured.

plasma hemostasis [2] = assay: Prothrombin time after intravenous administration; format: in vivo, rabbit; details: for effect on the prothrombin time index: doses of 15.0, 30.0, 60.0 mg/kg
Protocol: (§1) The static parameters of the blood and plasma coagulation (partial activated thromboplastin time, thrombin time, maximum coagulation activity (test for auto coagulation) were determined using the Behnk Electronic coagulometer (Germany). The operating principle of this instrument is based on the fact that the formed blood clot breaks the contacts of the pulse counter in the flask-pin circuit, said pin permanently oscillating in a vertical plane. The moment of formation of the clot is registered by stopping the stop watch hand.
(§2) The measurements were effected at a constant temperature of 37° C. maintained by a temperature control unit.
The method of its determination is based on estimation of the coagulation of citrate or oxalic blood plasma, when it is mixed with thromboplastin and a calcium chloride solution. Since under these conditions the time of formation of the clot depends on the content of II, VII, IX and X factors in the investigated plasma sample, now the test is called “thromboplastin time by Quick” or “activity thromboplastin complex”.
Citrate blood containing 1 part of citrate per 9 parts of native blood was centrifuged at 3000 rev/min for 10 minutes to obtain plasma deprived of thrombocytes.
Added into a test tube in a water bath were 0.1 ml of plasma and 0.1 ml of a thromboplastin solution.

plasma hemostasis [3] = assay: Thrombin time after intravenous administration; format: in vivo, rabbit
Protocol: The investigations were performed on 72 rabbits of the “Chinchilla” breed with a mass of 2.5±0.3 kg, who were administered which solutions of compounds 2, 15, 21, 37 in doses of 15, 30 and 60 mg/kg intravenously. The experiments included the thrombin-test (series No. 7300) and the coagulability-test (series No. 5000) purchased from the scientific-and-production association (SPA) “Renam”, thromboplastin (series No. 240600) and calcium chloride purchased from the SPA “MedioLab”
as §1, §2
The “thrombin time” characterizes the rate of transformation of fibrinogen into fibrin. It was determined by measuring the coagulation time of plasma deprived of thrombocytes under the effect of thrombin standardized by the control plasma.
0.2 ml of a thrombin solution was added to 0.2 ml of the test blood plasma of experimental animals, from whom the blood was taken 15, 30, 60 and 120 minutes after the intravenous administration of compounds 2, 15, 21, 37 according to the invention in doses of 15, 30, 60 mg/kg incubated for 1 minute at a temperature of 37° C. and the time of formation of clot T2 in seconds in a coagulometer of the Behnk Electronic Company (Germany).

[4] = 15.0 mg/kg intravenously, after 15 minutes, control 11.8 ± 0.1
[5] = 15.0 mg/kg intravenously, after 30 minutes, control 11.8 ± 0.1
[6] = 15.0 mg/kg intravenously, after 60 minutes, control 11.8 ± 0.1
[7] = 15.0 mg/kg intravenously, after 120 minutes, control 11.8 ± 0.1
[8] = 30.0 mg/kg intravenously, after 15 minutes, control 11.2 ± 0.1
[9] = 30.0 mg/kg intravenously, after 30 minutes, control 11.2 ± 0.1
[10] = 30.0 mg/kg intravenously, after 60 minutes, control 11.2 ± 0.1
[11] = 30.0 mg/kg intravenously, after 120 minutes, control 11.2 ± 0.1
[12] = 60.0 mg/kg intravenously, after 15 minutes, control 12.0 ± 0.1
[13] = 60.0 mg/kg intravenously, after 30 minutes, control 12.0 ± 0.1
[14] = 60.0 mg/kg intravenously, after 60 minutes, control 12.0 ± 0.1
[15] = 60.0 mg/kg intravenously, after 120 minutes, control 12.0 ± 0.1
[16] = 15.0 mg/kg intravenously, after 15 minutes, control 15.8
[17] = 15.0 mg/kg intravenously, after 30 minutes, control 15.8
[18] = 15.0 mg/kg intravenously, after 60 minutes, control 15.8
[19] = 15.0 mg/kg intravenously, after 120 minutes, control 15.8
[20] = 30.0 mg/kg intravenously, after 15 minutes, control 14.7
[21] = 30.0 mg/kg intravenously, after 30 minutes, control 14.7
[22] = 30.0 mg/kg intravenously, after 60 minutes, control 14.7
[23] = 30.0 mg/kg intravenously, after 120 minutes, control 14.7
[24] = 60.0 mg/kg intravenously, after 15 minutes, control 15.2
[25] = 60.0 mg/kg intravenously, after 30 minutes, control 15.2
[26] = 60.0 mg/kg intravenously, after 60 minutes, control 15.2
[27] = 60.0 mg/kg intravenously, after 120 minutes, control 15.2

SMILES	dependence of the bond with erythrocytes on temperature [1]	prothrombin time, T (plasma hemostasis [2]; [4])	prothrombin time, T (plasma hemostasis [2]; [5])	prothrombin time, T (plasma hemostasis [2]; [6])	prothrombin time, T (plasma hemostasis [2]; [7])	prothrombin time, T (plasma hemostasis [2]; [8])	prothrombin time, T (plasma hemostasis [2]; [9])	prothrombin time, T (plasma hemostasis [2]; [10])	prothrombin time, T (plasma hemostasis [2]; [11])	prothrombin time, T (plasma hemostasis [2]; [12])	prothrombin time, T (plasma hemostasis [2]; [13])	prothrombin time, T (plasma hemostasis [2]; [14])	prothrombin time, T (plasma hemostasis [2]; [15])	effect on the prothrombin time index (plasma hemostasis [2])	thrombin time, T2 (plasma hemostasis [3]; [16])	thrombin time, T2 (plasma hemostasis [3]; [17])	thrombin time, T2 (plasma hemostasis [3]; [18])	thrombin time, T2 (plasma hemostasis [3]; [19])	thrombin time, T2 (plasma hemostasis [3]; [20])	thrombin time, T2 (plasma hemostasis [3]; [21])	other results
O=c1[nH][nH]c(=O)c2c(Br)ncnc12.[K] [Compound 37, potassium salt of 4-bromine-pyrimido[4,5-D]-6H-pyridazine-5,8-dione]	does not depend on the temperature	11.6 ± 0.2 s	11.6 ± 0.1 s	11.5 ± 0.2 s	11.8 ± 0.1 s	11.3 ± 0.1 s	11.2 ± 0.2 s	11.4 ± 0.1 s	11.1 ± 0.1 s	12.1 ± 0.1 s	12.0 ± 0.1 s	12.1 ± 0.2 s	12.0 ± 0.1 s	have no effect on the prothrombin time index	16.9* s	18.2* s	16.3* s	15.6* s	19.5* s	20.3* s	thrombin time, T2 (plasma hemostasis [3]; [22]): 21.0* s; thrombin time, T2 (plasma hemostasis [3]; [23]): 15.2* s; thrombin time, T2 (plasma hemostasis [3]; [24]): 16.6* s; thrombin time, T2 (plasma hemostasis [3]; [25]): 17.8* s; thrombin time, T2 (plasma hemostasis [3]; [26]): 16.2* s; thrombin time, T2 (plasma hemostasis [3]; [27]): 15.0* s
Nc1cnc2c(=O)n([C@@H]3O[C@H](CO)[C@@H](O)[C@H]3O)[nH]c(=O)c2n1.[Na] [Compound 21, sodium salt of 3-amino-7-(β-D-ribofuranosile)pyrazine[2,3-d]-6H-pyridazine-5,8-dione]	does not depend on the temperature	11.4 ± 0.2 s	11.5 ± 0.1 s	11.3 ± 0.1 s	11.5 ± 0.2 s	11.2 ± 0.1 s	11.2 ± 0.1 s	11.3 ± 0.2 s	11.2 ± 0.2 s	12.0 ± 0.2 s	11.8 ± 0.1 s	12.1 ± 0.1 s	12.0 ± 0.2 s	have no effect on the prothrombin time index	16.4* s	17.7* s	16.1* s	15.7* s	17.9* s	18.8* s	thrombin time, T2 (plasma hemostasis [3]; [22]): 19.0* s; thrombin time, T2 (plasma hemostasis [3]; [23]): 15.6* s; thrombin time, T2 (plasma hemostasis [3]; [24]): 16.2* s; thrombin time, T2 (plasma hemostasis [3]; [25]): 17.7* s; thrombin time, T2 (plasma hemostasis [3]; [26]): 16.3* s; thrombin time, T2 (plasma hemostasis [3]; [27]): 15.7* s
Nc1cccc2c(=O)[nH][nH]c(=O)c12.[Na] [Compound 15, sodium salt of 5-amino-benzo[d]-3H-pyridazine-1,4-dione]	does not depend on the temperature	11.5 ± 0.2 s	11.7 ± 0.2 s	11.2 ± 0.2 s	11.5 ± 0.2 s	11.0 ± 0.2 s	11.2 ± 0.2 s	11.4 ± 0.2 s	11.3 ± 0.2 s	12.0 ± 0.1 s	12.0 ± 0.1 s	12.0 ± 0.2 s	12.0 ± 0.1 s	have no effect on the prothrombin time index	17.0* s	18.5* s	16.5* s	15.5* s	19.7* s	20.5* s	thrombin time, T2 (plasma hemostasis [3]; [22]): 21.3* s; thrombin time, T2 (plasma hemostasis [3]; [23]): 15.0* s; thrombin time, T2 (plasma hemostasis [3]; [24]): 16.8* s; thrombin time, T2 (plasma hemostasis [3]; [25]): 18.0* s; thrombin time, T2 (plasma hemostasis [3]; [26]): 16.5* s; thrombin time, T2 (plasma hemostasis [3]; [27]): 14.7* s
